Measured values from patent publication EP4506003A1, “HALOGEN DERIVATIVES OF (4´,5´- METHYLENEDIOXYPHENYL)-6,7-DIMETHOXY-1,2,3,4-TETRAHYDROISOQUINOLINE FOR USE IN THE TREATMENT OF LEUKEMIA” (S.Yu Yunusov Institute of Chemistry of Plant Substances of …, priority 2023, dated 2025).
Marks after values point to notes of the source that are not given here.

How the values were obtained:
[1] = system: CCRF-CEM (CCL-119) (T-lymphoblastic leukemia); assay: MTT cytotoxicity on CCRF-CEM cells; format: cell-based; settings: Homo sapiens, 24 hours
Protocol: (§1) The cytotoxic properties of the compounds were determined in vitro using the MTT method in 96-well plates (Costar, USA). […] Rat liver hepatocytes were obtained according to the method, human blood mononuclear cells - according to [23]. Fibroblast cells were obtained according to the method of [24] with some modifications. Cell cultures were subcultured into 96-well plates according to the method of [21] by adding 100 μl of nutrient medium. The CCRF-CEM suspension culture was poured into a tube, centrifuged at 800 rpm for 10 minutes, and the supernatant was discarded. […] Data obtained in 3 independent experiments were expressed as the mean value for each concentration ± standard error of the mean, relative to the control values (cells without test compounds). The cytotoxic effect of each of the studied compounds was compared with the effect of the cytostatic Cisplatin-Naprod (India), containing cisplatin as an active component. Table 1: IC50 μM value for test compounds

[2] = system: fibroblasts; assay: MTT cytotoxicity on fibroblasts; format: cell-based; settings: Fibroblast, 24 hours
Protocol: as §1

[3] = system: Rat liver hepatocytes; assay: MTT cytotoxicity on hepatocytes; format: cell-based; settings: Rattus norvegicus, Hepatocyte, 24 hours
Protocol: as §1

[4] = Acute toxicity study (LD50); settings: mouse, in vivo, ip
Protocol: (§2) We studied the acute toxicity of compound F1 in vivo. The experiments were carried out on outbred white mice of both sexes weighing 18-20 g (24 pcs.). The animals were divided into groups of 12 mice each. The compound was dissolved in DMSO and then adjusted to the desired concentration with 0.9% NaCl solution and administered intraperitoneally and subcutaneously in a dose range from 5.0 to 200.0 mg/kg. […] The maximum relative error of the applied dose was no more than 5%.
as §2, with “F2” for “F1”, “brought” for “adjusted”, “subcutaneously to animals” for “subcutaneously”, “administered” for “applied”

[5] = system: outbred white mice; assay: Acute toxicity study (LD50)
Protocol: as §2
as §2, with “F2” for “F1”, “brought” for “adjusted”, “subcutaneously to animals” for “subcutaneously”, “administered” for “applied”

[6] = system: blood of patients with leukemia (combined group); assay: Hemogram of blood of patients with leukemia (combined group) after exposure; format: cell-based
Excerpt: (§3) The effect of compounds F1 and F2 was studied on biological material (blood) of patients with hematological malignancies (leukemia), as well as for individual nosologies, in particular, patients with leukemia (combined group) (n=224), T-ALL (n=84), B-ALL (n=100), ALL (n=100), AML (n= 98), AML (n=94) and AML (n= 98) were studied. A total of 798 blood samples from patients with leukemia were examined.
(§4) The drugs Cytosar (Alexan) (Ebewe Pharma, Austria) and doxorubicin (Naprod, Mumbai, India) recommended by WHO for the treatment of the above oncohematological diseases were used as comparison drugs.
(§5) 5 ml of venous blood from sick and conditionally healthy individuals were collected into Vacutainer tubes with the addition of EDTA (Himedia, India).
(§6) The resulting blood was divided into aliquots of 1 ml and 10 µl (10 µg/ml) of the studied drugs (cytosar, doxorubicin, F1 and F2) were added to each tube.

[7] = system: blood of patients with T-ALL; assay: Hemogram of blood of patients with T-ALL after exposure; format: cell-based
Excerpt: as §3, §4, §5, §6

[8] = system: blood of patients with B-ALL; assay: Hemogram of blood of patients with B-ALL after exposure; format: cell-based
Protocol: A total of 798 blood samples from patients with leukemia were examined.
as §4, §5, §6

[9] = system: blood of patients with ALL; assay: Hemogram of blood of patients with ALL after exposure; format: cell-based
Protocol: as §3, §5, §6

[10] = system: blood of patients with AML; assay: Hemogram of blood of patients with AML after exposure (Example 12, Table 9); format: cell-based
Protocol: as §4, §5, §6

[11] = system: blood of patients with AML; assay: Hemogram of blood of patients with AML after exposure (Example 13, Table 10; also OMML); format: cell-based
Protocol: as §4, §5, §6

[12] = system: blood of patients with AML; assay: Hemogram of blood of patients with AML after exposure (Example 14, Table 11); format: cell-based
Excerpt: as §3, §4, §5, §6

[13] = AML (Table 9), 10 µg/ml, 3 hours, 37.0°C
[14] = AML (Example 13), compared with doxorubicin
[15] = AML (Table 10), 10 µg/ml, 3 hours, 37.0°C
[16] = AML (Example 14), compared to cytosar
[17] = AML (Table 11), 10 µg/ml, 3 hours, 37.0°C

With COc1cc2c(cc1OC)C(c1cc3c(cc1Br)OCO3)NCC2 (centres unmarked) [Compound F1, 1-(2'-bromo-4',5'-methylenedioxyphenyl)-6,7-dimethoxy-1,2,3,4-tetrahydroisoquinoline] the IC50 [1] was 36.6 µM, the IC50 [2] was > 100 µM and the IC50 [3] was > 100 µM. For the same compound, the LD50 at 168 h [4] was 240 ± 13.8 mg/kg, the toxicity class ([5]; classified from LD50) was “toxicity class 3 (moderately toxic)” and the LD50 dose ([5]; intraperitoneal, mice, observed for a week, 10080 min) was 240,0±13,8 mg/kg. The “LD50 value, times higher than cytosar (cytarabine)” value ([5]; relative to cytosar) was 57 times, the “LD50 value, times higher than doxorubicin” value ([5]; relative to doxorubicin) was 22 times and the “Band (s/n) neutrophils” value ([6]; 10 µg/ml, 3 hours, 37.0°C) was 2,5±0,3 %. For the same compound, the Blasts ([6]; 10 µg/ml, 3 hours, 37.0°C) was 65,7±2,3 %, the Destroyed cells ([6]; 10 µg/ml, 3 hours, 37.0°C) was 14,8±1,8*^ # % and the Eosinophils ([6]; 10 µg/ml, 3 hours, 37.0°C) was 4,0±0,6 %. The Lymphocytes ([6]; 10 µg/ml, 3 hours, 37.0°C) was 12,0±0,9%, the Monocytes ([6]; 10 µg/ml, 3 hours, 37.0°C) was 4,9±0,6 % and the Myelocytes ([6]; 10 µg/ml, 3 hours, 37.0°C) was 4,0±0,5 %. For the same compound, the Promyelocytes ([6]; 10 µg/ml, 3 hours, 37.0°C) was 5,0±0,6^ %, the “Segmented (s/i) neutrophils” value ([6]; 10 µg/ml, 3 hours, 37.0°C) was 7,0±0,8% and the “decrease in the content of blasts” value ([6]; versus Control group) was 10.7%. The “increase in the percentage of neutrophils” value ([6]; versus control) was 1.8 times, the “increase in the proportion of destroyed cells” value ([6]; versus control) was 9.3% and the “increase in the proportion of eosinophils” value ([6]; versus control) was 2.7 times. The “Band (s/n) neutrophils” value ([7]; 10 µg/ml, 3 hours, 37.0°C) was 0.0±0.0%, the Blasts ([7]; 10 µg/ml, 3 hours, 37.0°C) was 68,9±1,7 % and the Destroyed cells ([7]; 10 µg/ml, 3 hours, 37.0°C) was 16,9±1,1*^ # %. The Eosinophils ([7]; 10 µg/ml, 3 hours, 37.0°C) was 0,0±0,6%, the Lymphocytes ([7]; 10 µg/ml, 3 hours, 37.0°C) was 9,1±1,0% and the Monocytes ([7]; 10 µg/ml, 3 hours, 37.0°C) was 1,3±0,3 %. For the same compound, the Myelocytes ([7]; 10 µg/ml, 3 hours, 37.0°C) was 0,0±0,0%, the Promyelocytes ([7]; 10 µg/ml, 3 hours, 37.0°C) was 0,0±0,0% and the “Segmented (s/i) neutrophils” value ([7]; 10 µg/ml, 3 hours, 37.0°C) was 3.9±0,4 %. The “decrease in p/i neutrophils” value ([7]; comparator not stated) was 1.7 times, the “increase in the proportion of destroyed cells” value ([7]; compared with cytosar) was 1.9 times and the “increase in the proportion of destroyed cells” value ([7]; compared with doxorubicin) was 1.3 times. The “decrease in the content of blasts” value [8] was 1.16 times, the “increase in the proportion of destroyed cells” value [8] was 4.1 times and the “Band (s/n) neutrophils” value ([8]; 10 µg/ml, 3 hours, 37.0°C) was 1,4±0,4%. The Blasts ([8]; 10 µg/ml, 3 hours, 37.0°C) was 59,0±2,9 %, the Destroyed cells ([8]; 10 µg/ml, 3 hours, 37.0°C) was 12,6±2,0 % and the Eosinophils ([8]; 10 µg/ml, 3 hours, 37.0°C) was 0,2±0,1%. The Lymphocytes ([8]; 10 µg/ml, 3 hours, 37.0°C) was 13,5±1,7 %, the Monocytes ([8]; 10 µg/ml, 3 hours, 37.0°C) was 3,5±0,8 % and the Myelocytes ([8]; 10 µg/ml, 3 hours, 37.0°C) was 0,5±0,2%. For the same compound, the Promyelocytes ([8]; 10 µg/ml, 3 hours, 37.0°C) was 0,0±0,0%, the “Segmented (s/i) neutrophils” value ([8]; 10 µg/ml, 3 hours, 37.0°C) was 9,4±0,9 % and the “Band (s/n) neutrophils” value ([9]; 10 µg/ml, 3 hours, 37.0°C) was 0,3±0,1%. The Blasts ([9]; 10 µg/ml, 3 hours, 37.0°C) was 68,4±2,7*^ %, the Destroyed cells ([9]; 10 µg/ml, 3 hours, 37.0°C) was 12,9±1,7*^ % and the Eosinophils ([9]; 10 µg/ml, 3 hours, 37.0°C) was 0,0±0,0%. The Lymphocytes ([9]; 10 µg/ml, 3 hours, 37.0°C) was 12,6±1,1 %, the Monocytes ([9]; 10 µg/ml, 3 hours, 37.0°C) was 1,8±0,4% and the Myelocytes ([9]; 10 µg/ml, 3 hours, 37.0°C) was 0,0±0,0%. The Promyelocytes ([9]; 10 µg/ml, 3 hours, 37.0°C) was 0,0±0,0%, the “Segmented (s/i) neutrophils” value ([9]; 10 µg/ml, 3 hours, 37.0°C) was 4,2±1,0 % and the “percentage of destroyed cells higher” value ([9]; compared to cytosar) was 2.7 times. For the same compound, the “difference in the level of blast cells” value ([9]; compared with cytosar) was 1.15 times, the “decrease in the percentage of blasts” value ([10]; AML (Example 12)) was 1.2 times and the “increase in the level of destroyed cells” value ([10]; AML (Example 12)) was 4.5 times. For the same compound, the “increase in the proportion of mature differentiated neutrophils” value ([10]; AML (Example 12)) was 2.6 times, the “increase in the percentage of destroyed cells” value ([10]; AML (Example 12), compared with cytosar) was 2.0 times and the “decrease in the percentage of destroyed cells” value ([10]; AML (Example 12), compared with doxorubicin) was 2.3 times. The “Band (s/n) neutrophils” value [10, 13] was 1,2±0,3%, the Blasts [10, 13] was 63,6±2,3 % and the Destroyed cells [10, 13] was 12,7±1,2*^ # %. The Eosinophils [10, 13] was 0,4±0,2%, the Lymphocytes [10, 13] was 10,7±1,1% and the Monocytes [10, 13] was 3,0±0,7%. For the same compound, the Myelocytes [10, 13] was 1,2±0,6%, the Promyelocytes [10, 13] was 0,3±0,2% and the “Segmented (s/i) neutrophils” value [10, 13] was 7,0±0,7 %. For the same compound, the “decrease in the percentage of myelocytes” value ([11]; AML (Example 13)) was 2.5 times, the “decrease in the proportion of blasts” value ([11]; AML (Example 13)) was 1.6% and the “increase in the proportion of destroyed cells” value ([11]; AML (Example 13)) was 5.3 times. For the same compound, the “increase in the proportion of neutrophils” value ([11]; AML (Example 13)) was 2.0 times, the “proportion of destroyed cells higher” value ([11]; AML (Example 13), compared with Cytosar) was 2.4 times and the myelocytes lower [11, 14] was 1.5 times. For the same compound, the “proportion of destroyed cells higher” value [11, 14] was 1.2 times, the “percentage of myelocytes lower” value ([11]; AML (Example 13), relative to cytosar) was 6.15 times and the “Band (s/n) neutrophils” value [11, 15] was 2,8±0,3%. The Blasts [11, 15] was 51,1±2,2%, the Destroyed cells [11, 15] was 18,7±1,3*^ # % and the Eosinophils [11, 15] was 0,8±0,3%. For the same compound, the Lymphocytes [11, 15] was 6,2±0,6%, the Monocytes [11, 15] was 1,4±0,2 % and the Myelocytes [11, 15] was 2,6±0,5 %. The Promyelocytes [11, 15] was 0,0±0,0%, the “Segmented (s/i) neutrophils” value [11, 15] was 16,6±1,3 % and the “percentage of blasts lower” value [12, 16] was 4.1%. For the same compound, the “percentage of monocytes lower” value [12, 16] was 2.4 times, the “percentage of destroyed cells higher” value ([12]; AML (Example 14), than after Cytosar) was 1.8 times and the “Band (s/n) neutrophils” value [12, 17] was 1,6±0,5%. The Blasts [12, 17] was 55,4±3,1 %, the Destroyed cells [12, 17] was 22,6±2,3*^ % and the Eosinophils [12, 17] was 0,0±0,0%. The Lymphocytes [12, 17] was 10,1±1,0%, the Monocytes [12, 17] was 2.0±0,6^ % and the Myelocytes [12, 17] was 0,9±0,3%. For the same compound, the Promyelocytes [12, 17] was 0,0±0,0% and the “Segmented (s/i) neutrophils” value [12, 17] was 9,6±1,7%.
